From patent US20260265321A1, “PEPTIDE AND POLYPEPTIDE INHIBITING THE NF-KB SIGNALING PATHWAY” (Centre National de la Recherche Scientifique, priority 2023, published 2026)
Like-named read-outs stand apart in the source and are kept apart here. Residues, ends and D or L forms follow the SMILES beside them.

Columns and labels:
IKKβ(1-669) EE homodimer = molecular target: T1, IKKβ(1-669) EE homodimer (Homo sapiens, UniProt O14920, S177E/S181E); experiment: Isothermal titration calorimetry (ITC) of peptide binding to IKKβ homodimer; details: for N (binding stoichiometry of IKKβ: pep) / TΔS / ΔG / ΔH: 25° C.; for N (binding stoichiometry of IKKβ: pep): 1:1 binding model
T1 construct: a nearly full-length (residues 1-669) and constitutively active (S177E/S181E) mutant construct of human IKKβ; 6×His (followed by TEV site) (N, cleaved yes); made in house; host or cells: Sf21 insect cells (baculovirus)
T1 sequence (O14920 1-669 S177E/S181E): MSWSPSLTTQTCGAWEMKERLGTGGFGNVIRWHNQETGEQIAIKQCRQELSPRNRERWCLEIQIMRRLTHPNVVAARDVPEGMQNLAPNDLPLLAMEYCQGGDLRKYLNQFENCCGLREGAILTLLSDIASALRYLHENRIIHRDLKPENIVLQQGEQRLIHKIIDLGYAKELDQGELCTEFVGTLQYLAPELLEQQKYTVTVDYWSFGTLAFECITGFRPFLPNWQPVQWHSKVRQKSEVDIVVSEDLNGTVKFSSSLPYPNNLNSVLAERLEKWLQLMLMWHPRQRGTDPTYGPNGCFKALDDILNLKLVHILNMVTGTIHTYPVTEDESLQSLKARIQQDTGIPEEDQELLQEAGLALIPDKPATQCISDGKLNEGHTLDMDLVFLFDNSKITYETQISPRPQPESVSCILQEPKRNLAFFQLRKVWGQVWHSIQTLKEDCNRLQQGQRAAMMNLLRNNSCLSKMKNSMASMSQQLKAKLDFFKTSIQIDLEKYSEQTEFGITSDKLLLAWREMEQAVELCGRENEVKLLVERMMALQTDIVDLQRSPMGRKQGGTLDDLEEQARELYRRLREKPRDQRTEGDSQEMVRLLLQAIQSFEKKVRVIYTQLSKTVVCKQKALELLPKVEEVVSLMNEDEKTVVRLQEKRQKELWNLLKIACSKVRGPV
Procedure: (§1) All experiments were performed in ITC buffer (20 mM HEPES pH 8.0, 150 mM NaCl, 1 mM TCEP) unless otherwise stated. Purified IKKα(10-667) EE and IKKβ(1-669) EE protein samples were dialyzed overnight against ITC buffer at 4° C. Just before the ITC experiments, IKKα or IKKβ samples were concentrated, incubated at room temperature for 30 minutes and centrifuged at 11000 g to remove eventual precipitate. The final concentrations of IKKα and IKKβ in the sample cell varied between 22 and 50 μM depending on the measurement. HPLC purified synthetic peptides (IκBα pep) comprising residues 297-317 of IκBα were further desalted using a Nap5 (GE Healthcare, #17-0853-01) column equilibrated in milliQ water, lyophilized and then resuspended in ITC buffer. The concentration of peptides in the syringe varied between 220 and 975 μM depending on the measurement.
(§2) All ITC measurements were performed using a PEAQ-ITC MALVERN instrument. The titration parameters were set as following: temperature 25° C., reference power 10 μcal/s, feedback=high, stirring speed 750 RPM, initial delay 60 s, first injection 0.4 μl in 0.8 s and the remaining 19 injections were 2 μL in 4 s with 120 s of spacing. The data were fitted to a 1:1 binding model. All data were processed using NITPIC software and global fitting of two datasets was carried out using SEDPHAD.
(§3) To evaluate binding affinities, isothermal titration calorimetry (ITC) experiments were performed using a synthetic peptide that comprises the YDDφXφ motif plus the N-terminal acidic patch (residues 297-317, named IκBα pep hereafter) and purified IKKβ(1-669) EE homodimer or an equivalent construct of the IKKα homodimer (i.e. IKKα(10-667) S176E/S180E, named IKKα(10-667) EE hereafter). […] ITC analyses on the IKKα/β heterodimer were prevented by strong aggregation propensity at the concentrations required for these experiments.
(§4) All ITC experiments were performed at 25° C. The data were fitted to a 1:1 binding model. N refers to the binding stoichiometry of IKKα/β: pep, meaning that approximately half of total IKKα/β concentration binds pep ligand in agreement with the dimer form of IKKα/β being binding competent. The values for the IKKα interaction with IRF7 pep should be regarded as estimates due to low affinity and weakly exothermic binding, and therefore high experimental error and fitting uncertainty. All data were processed using NITPIC software and global fitting of two datasets was carried out using SEDPHAD.

[1] = molecular target: T2, IKKα(10-667) EE homodimer (Homo sapiens, UniProt O15111, S176E/S180E); experiment: Isothermal titration calorimetry (ITC) of peptide binding to IKKα homodimer; details: for TΔS / ΔG / ΔH / Kd: IKKα
T2 construct: an equivalent construct of the IKKα homodimer (i.e. IKKα(10-667) S176E/S180E, named IKKα(10-667) EE hereafter); 6×His (followed by TEV site) (N, cleaved yes); made in house; host or cells: Sf21 insect cells (baculovirus)
T2 sequence (O15111 10-667 S176E/S180E): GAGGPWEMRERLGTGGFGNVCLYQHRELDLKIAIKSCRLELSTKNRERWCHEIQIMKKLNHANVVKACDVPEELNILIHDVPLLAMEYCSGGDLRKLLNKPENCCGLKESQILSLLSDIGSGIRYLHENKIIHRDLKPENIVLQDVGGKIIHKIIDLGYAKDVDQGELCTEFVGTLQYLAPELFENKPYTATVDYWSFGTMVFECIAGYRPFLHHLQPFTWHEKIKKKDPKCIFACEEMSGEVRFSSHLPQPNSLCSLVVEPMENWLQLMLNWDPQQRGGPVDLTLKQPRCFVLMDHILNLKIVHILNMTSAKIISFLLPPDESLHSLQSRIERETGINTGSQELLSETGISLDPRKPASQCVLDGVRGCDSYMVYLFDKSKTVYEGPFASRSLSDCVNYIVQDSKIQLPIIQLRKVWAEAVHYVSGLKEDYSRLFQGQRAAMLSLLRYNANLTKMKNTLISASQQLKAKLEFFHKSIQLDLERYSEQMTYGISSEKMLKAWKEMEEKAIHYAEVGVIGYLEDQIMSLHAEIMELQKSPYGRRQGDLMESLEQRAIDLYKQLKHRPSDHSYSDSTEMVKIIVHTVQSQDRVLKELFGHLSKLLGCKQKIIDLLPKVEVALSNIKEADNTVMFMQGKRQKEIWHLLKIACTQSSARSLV
Procedure: as §1, §2, §3, §4

enhancement of affinity to IKKβ relative to IκBα pep wt (IKKβ(1-669) EE homodimer; ITC)	Kd (IKKβ(1-669) EE homodimer; ITC, IKKβ, read-out: KD)	enhancement of affinity to IKKα relative to IκBα pep wt [1]	Kd [1]	Structure (SMILES)	N (binding stoichiometry of IKKβ: pep) (IKKβ(1-669) EE homodimer; ITC)	TΔS (IKKβ(1-669) EE homodimer; ITC, IKKβ)	ΔG (IKKβ(1-669) EE homodimer; ITC, IKKβ)	ΔH (IKKβ(1-669) EE homodimer; ITC, IKKβ)	N (binding stoichiometry of IKKα: pep) ([1]; 25° C., 1:1 binding model)	TΔS ([1]; 25° C.)	ΔG ([1]; 25° C.)	ΔH ([1]; 25° C.)	Kd (IKKβ(1-669) EE homodimer)	Kd ([1]; 25° C., 1:1 binding model)
15 fold	2.6 µM	25 fold	0.35 µM	CC(C)C[C@H](NC(=O)[C@@H](NC(=O)[C@H](CC(C)C)NC(=O)[C@H](CCCNC(=N)N)NC(=O)[C@H](CCC(N)=O)NC(=O)CNC(=O)CNC(=O)[C@H](Cc1ccccc1)NC(=O)[C@@H](NC(=O)[C@H](CC(C)C)NC(=O)[C@H](CC(=O)O)NC(=O)[C@H](CC(=O)O)NC(=O)[C@H](Cc1ccc(O)cc1)NC(=O)[C@@H]1CCCN1C(=O)[C@H](CC(C)C)NC(=O)[C@H](CCC(=O)O)NC(=O)[C@H](CC(=O)O)NC(=O)[C@H](CCC(=O)O)NC(=O)[C@@H](NC(=O)[C@H](Cc1ccccc1)NC(=O)[C@@H](N)CCC(=O)O)[C@@H](C)O)C(C)C)[C@@H](C)O)C(=O)O [IkBα pep C308L] (H-EFTEDELPYDDLVFGGQRLTL-OH; N-terminus and C-terminus assumed)	0.63	-4.59 kcal/mol	-7.61 kcal/mol	-12.2 kcal/mol	0.65	-4.71 kcal/mol	-8.80 kcal/mol	-13.5 kcal/mol	–	–
–	–	–	–	CC(C)C[C@H](NC(=O)[C@@H](NC(=O)[C@H](CC(C)C)NC(=O)[C@H](CCCNC(=N)N)NC(=O)[C@H](CCC(N)=O)NC(=O)CNC(=O)CNC(=O)[C@H](Cc1ccccc1)NC(=O)[C@@H](NC(=O)[C@H](CS)NC(=O)[C@H](CC(=O)O)NC(=O)[C@H](CC(=O)O)NC(=O)[C@H](Cc1ccc(O)cc1)NC(=O)[C@@H]1CCCN1C(=O)[C@H](CC(C)C)NC(=O)[C@H](CCC(=O)O)NC(=O)[C@H](CC(=O)O)NC(=O)[C@H](CCC(=O)O)NC(=O)[C@@H](NC(=O)[C@H](Cc1ccccc1)NC(=O)[C@@H](N)CCC(=O)O)[C@@H](C)O)C(C)C)[C@@H](C)O)C(=O)O [IκBα pep] (H-EFTEDELPYDDCVFGGQRLTL-OH; N-terminus and C-terminus assumed)	0.58	-9.78 kcal/mol	-6.00 kcal/mol	-15.8 kcal/mol	0.62	-8.35 kcal/mol	-6.88 kcal/mol	-15.2 kcal/mol	40 µM	9 µM
